IC50 data for 15 compounds are collected here from patent US8669256B2, “Substituted thieno[2,3-b]pyrazine compounds as modulators of B-Raf kinase activity” (Merck Sharp & Dohme B.V., priority 2010, dated 2014).

Where two headings read alike, the source gives them in different places.

By IC50 is commonly meant the point on the concentration scale where inhibition reaches its midpoint.

Test [1] addresses T1, GST-tagged human recombinant active B-Raf (Δ1-415) (Homo sapiens, UniProt P15056).
T1 construct: GST; purchased Upstate/Millipore
Put plainly: B-Raf kinase activity, IMAP coupled assay (B-Raf/MEK1/ERK2, fluorescence polarization). The format is biochemical. The note with it: bounds also given as pIC50 (>6, >7, >8); 60 min pre-incubation with compound, ATP 50 μM; read-out: IC50, B-Raf IMAP assay.
Source text: (§1) In another assay the B-Raf kinase activity can be determined by using an IMAP assay (Immobilized Metal Assay for Phosphochemicals-based coupled assay). IMAP is a homogeneous fluorescence polarization (FP) assay based on affinity capture of phosphorylated peptide substrates. IMAP uses fluorescein-labeled peptide substrates that, upon phosphorylation by a protein kinase, bind to so called IMAP nanoparticles, which are derivatized with trivalent metal complexes. Such binding causes a change in the rate of the molecular motion of the peptide, and results in an increase in the FP value observed for the fluorescein label attached to the substrate peptide. In such an assay, B-Raf phosphorylates unactive MEK1. The phosphorylated MEK1 is capable of phosphorylating ERK2, which subsequently phosphorylates the fluorescein-labeled peptide substrate.
Determination of B-Raf Kinase Activity using an IMAP Assay
as §1, with “Inhibition of” for “In another assay the”, “was measured” for “can be determined by”, “Immobilized” for “IMAP assay (Immobilized”, “assay (IMAP).” for “assay).”, “this” for “such an”
Enzymes, substrate and ATP were diluted at all steps in Kinase Reaction buffer (10 mM Tris-HCl, 10 mM MgCl2, 0.01% Tween-20, 0.05% NaN3 pH 7.2, 1 mM DTT). The final volume at the kinase reaction step of the assay in the 384-well plate was 20 μl. The concentrations within brackets are final concentrations in the assay. B-Raf (GST-tagged human recombinant active B-Raf (Δ1-415), Upstate/Millipore; 0.2 U/ml) was pre-incubated with compounds or DMSO (1% final concentration) for 60 minutes at room temperature in the dark. Thereafter, MEK 1 (GST-tagged human recombinant unactive MEK1 (full-length); 64 ng/ml), ERK2 (GST-tagged human recombinant unactive ERK2 (full-length); 600 ng/ml), peptide substrate (Erktide, Molecular Devices; 50 nM) and ATP (50 μM) were added to the wells and the mix was incubated for another 60 minutes at 30° C. in the dark. Then, IMAP progressive binding buffer (75% 1× buffer A, 25% 1× buffer B, 1:900 Progressive Binding Reagent; Molecular Devices) was added followed by an incubation step of 60 minutes at room temperature in the dark. Finally, the FP signal was read on an Envision Multilabel reader (Perkin Elmer).
Background: In fluorescence polarisation assays a small probe gives low polarisation when free and higher when bound to something large.

In test [2] the test system is phosphorylation of ERK1/2 in A375 cells containing mutant B-Raf (V600E). The test is described as follows: Phospho-ERK FACE assay in A375 (B-Raf mutated) melanoma cell line. Format: cell-based. The note with it: Homo sapiens, A-375, A375 cells, 2 hours incubation, read-out: IC50, A375 melanoma phospho-ERK assay. The protocol: The B-Raf activity can also be determined in a B-Raf mutated melanoma cell line, such as the A375 cell line. Inhibition of phosphorylation of ERK1/2 can be measured using a Fast Activated Cell-based ELISA (FACE) from Active Motif (Carlsbad, U.S.A., CA). E.g. A375 cells, which are cells containing a mutant form of B-Raf (V600E) and thus contain high levels of phosphorylated ERK, can be incubated with Raf inhibitors. Then cells can be incubated with anti-phospho-ERK antibody and subsequently with horse radish peroxidase (HRP)-labeled secondary antibody. Finally, chemiluminescence reagents can be added, which react with HRP, to give a luminescence signal.
Determination of B-Raf Activity Using a A375 (B-Raf mutated) Melanoma Cell Line (Phospho-ERK FACE Assay)
Inhibition of phosphorylation of ERK1/2 was measured using a Fast Activated Cell-based ELISA (FACE) from Active Motif (Carlsbad, U.S.A., CA). Briefly, A375 cells, which are cells containing a mutant form of B-Raf (V600E) and thus contain high levels of phosphorylated ERK, were incubated for 2 hours with Raf inhibitors. Then, cells were fixed with paraformaldehyde, washed and following quenching and blocking, incubated with anti-phospho-ERK antibody, and as a control, on a separate plate, with ERK antibody. After washing and removal of the primary antibodies, the fixed cells were incubated with horse radish peroxidase (HRP)-labeled secondary antibody. Finally, chemiluminescence reagents were added, which react with HRP, to give a luminescence signal.
Detailed protocol: A375 cells were cultured in DMEM/F12 (Dulbecco's Modified Eagle Medium Nutrient Mixture F-12) (Invitrogen), supplemented with 10% fetal bovine serum (FBS) (Biowhittaker), 100 U/ml penicillin G and 100 μg/ml streptomycin (Gibco). For the phospho ERK assay, cells were seeded at a density of 15,000 cells/well in 100 μl culture medium in 96-well plates and incubated in a humidified atmosphere at 5% CO2 and 37° C. After 24 hours, cells were washed with DMEM/F12 supplemented with 0.1% FBS (assay medium 120 μl of assay medium was added and the plates were incubated overnight in a humidified atmosphere at 5% CO2 and 37° C. The next day, the assay medium was removed and compounds diluted in assay medium were added to the cells. Final DMSO concentration in the assay was 1%. After 2 hours incubation, cells were fixed by replacing the assay medium with 100 μl of 4% formaldehyde (Bio-Connect, Huissen, The Netherlands) in PBS. After 20 minutes of incubation at room temperature, cells were washed three times with 200 μl wash buffer (0.1% (vol/vol) Triton X-100 in PBS from the FACE kit) followed by an incubation of 20 minutes with 100 μl quenching buffer, containing 1% (vol/vol) hydrogen peroxide (Thermo Fisher Scientific) and 0.1% (vol/vol) sodium azide (Sigma-Aldrich) in phosphate-buffered saline. Cells were washed two times with wash buffer, incubated for 1 hour with 100 μl antibody blocking buffer from the kit and washed two times again. 40 μl of diluted antibody against phosphorylated ERK1/2 (1:500 from the FACE kit) was added and incubated overnight at 4° C. The phospho-ERK antibody has been raised against a synthetic phospho-peptide corresponding to residues Thr202 and Tyr204 of human ERK1 and Thr185 and Tyr187 of human ERK2. For the detection of total ERK, antibody against ERK1 and ERK2 (1:500 from the FACE kit) was added. The excessive primary antibody was washed out, and 100 μl diluted HRP-conjugated anti-rabbit IgG (1:2000 from the FACE kit) was added and incubated for 1 hour at room temperature. Secondary antibody was removed and cells were washed 3 times with wash buffer and twice with PBS. 50 μl per well of FACE chemiluminescent working solution was added. Chemiluminescence was measured on an Envision Multilabel reader.

Setting [3] is: between 1 μM and 100 nM (6<pIC50<7).
Where [4] appears, read: class between 10 μM and 1 μM (5<pIC50<6).
Setting [5] is: class given as below 100 nM (pIC50>7).

T1 sequence (P15056 416-766, stated change not applied): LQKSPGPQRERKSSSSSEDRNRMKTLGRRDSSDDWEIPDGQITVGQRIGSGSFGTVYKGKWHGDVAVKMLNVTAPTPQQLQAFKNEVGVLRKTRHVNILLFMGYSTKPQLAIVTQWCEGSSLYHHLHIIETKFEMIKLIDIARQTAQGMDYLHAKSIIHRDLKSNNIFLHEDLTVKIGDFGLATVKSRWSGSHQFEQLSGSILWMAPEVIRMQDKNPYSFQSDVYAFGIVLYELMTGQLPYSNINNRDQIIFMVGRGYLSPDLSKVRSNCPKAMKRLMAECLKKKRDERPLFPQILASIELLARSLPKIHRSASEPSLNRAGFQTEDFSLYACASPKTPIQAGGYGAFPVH

Take `CNc1cnc2sc(C(=O)Nc3cc(NC(=O)c4cccc(C(C)(C)C#N)c4)ccc3C)cc2n1` [Example 17, N-(5-(3-(2-cyanopropan-2-yl)benzamido)-2-methylphenyl)-2-(methylamino)thieno[2,3-b]pyrazine-6-carboxamide]: the IC50 in test [1] is under 0.1 µM; in test [2] (setting [3]), 0.1 to 1 µM.
The corresponding values for `Cc1ccc(NC(=O)c2cccc(C(C)(C)C#N)c2)cc1NC(=O)c1cc2nc(NCc3ccncc3)cnc2s1` [Example 18, N-(5-(3-(2-cyanopropan-2-yl)benzamido)-2-methylphenyl)-2-(pyridin-4-ylmethylamino)thieno[2,3-b]pyrazine-6-carboxamide] are under 0.01 µM and 0.1 to 1 µM.
Turning to `CC(=O)c1cnc2sc(C(=O)Nc3cc(NC(=O)c4cccc(C(C)(C)C#N)c4)ccc3C)cc2n1` [Example 19, 2-acetyl-N-(5-(3-(2-cyanopropan-2-yl)benzamido)-2-methylphenyl)thieno[2,3-b]pyrazine-6-carboxamide], the IC50 in test [1] is under 0.1 µM; in test [2] (setting [4]), 1 to 10 µM.
On to `Cc1ccc(NC(=O)c2cccc(C(C)(C)C#N)c2)cc1NC(=O)c1cc2nc(-c3cccnc3)cnc2s1` [Example 20, N-(5-(3-(2-cyanopropan-2-yl)benzamido)-2-methylphenyl)-2-(pyridin-3-yl)thieno[2,3-b]pyrazine-6-carboxamide], for which the IC50 was under 0.01 µM in test [1] and under 0.1 µM in test [2] (setting [5]).
Turning to `Cc1ccc(NC(=O)c2cccc(C(C)(C)C#N)c2)cc1NC(=O)c1cc2nc(-c3ccncc3)cnc2s1` [Example 21, N-(5-(3-(2-cyanopropan-2-yl)benzamido)-2-methylphenyl)-2-(pyridin-4-yl)thieno[2,3-b]pyrazine-6-carboxamide], the IC50 in test [1] and in test [2] (setting [5]) was under 0.1 µM throughout.
In the case of `Cc1cnc2sc(C(=O)Nc3cc(NC(=O)c4cccc(C(C)(C)C#N)c4)ccc3C)cc2n1` [Example 24, N-(5-(3-(2-cyanopropan-2-yl)benzamido)-2-methylphenyl)-2-methylthieno[2,3-b]pyrazine-6-carboxamide], the concentration for half-maximal inhibition (IC50) was under 0.01 µM in test [1] and 0.1 to 1 µM in test [2] (setting [3]).
Consider `Cc1ccc(NC(=O)c2ccnc(N3CCCC3)c2)cc1NC(=O)c1cc2nccnc2s1` [Example 26, N-(2-methyl-5-(2-(pyrrolidin-1-yl)isonicotinamido)phenyl)thieno[2,3-b]pyrazine-6-carboxamide], for which the figures for the IC50 in test [1] and in test [2] (setting [4]) were under 0.1 µM and 1 to 10 µM, respectively.
For `Cc1ccc(NC(=O)c2cccc(C(C)(C)C#N)c2)cc1NC(=O)c1cc2nccnc2s1` [Example 27, N-(5-(3-(2-cyanopropan-2-yl)benzamido)-2-methylphenyl)thieno[2,3-b]pyrazine-6-carboxamide], the results for the IC50 in test [1] and in test [2] (setting [3]) were under 0.01 µM and 0.1 to 1 µM, respectively.
With `COc1ccc(C(=O)Nc2ccc(C)c(NC(=O)c3cc4nccnc4s3)c2)cc1C(F)(F)F` [Example 28, N-(5-(4-methoxy-3-(trifluoromethyl)benzamido)-2-methylphenyl)thieno[2,3-b]pyrazine-6-carboxamide], the IC50 was under 0.1 µM in test [1] and 0.1 to 1 µM in test [2] (setting [3]).
The corresponding values for `Cc1ccc(NC(=O)c2cccc(C3(C#N)CC3)c2)cc1NC(=O)c1cc2nccnc2s1` [Example 29, N-(5-(3-(1-cyanocyclopropyl)benzamido)-2-methylphenyl)thieno[2,3-b]pyrazine-6-carboxamide] are under 0.01 µM and 0.1 to 1 µM.
The corresponding values for `Cc1ccc(NC(=O)c2cc(C(C)(C)C)n[nH]2)cc1NC(=O)c1cc2nccnc2s1` [Example 30, N-(5-(3-tert-butyl-1H-pyrazole-5-carboxamido)-2-methylphenyl)thieno[2,3-b]pyrazine-6-carboxamide] are under 0.1 µM and 0.1 to 1 µM.
The corresponding values for `Cc1ccc(NC(=O)c2ccc(C)c(C(F)(F)F)c2)cc1NC(=O)c1cc2nccnc2s1` [Example 31, N-(2-methyl-5-(4-methyl-3-(trifluoromethyl)benzamido)phenyl)thieno[2,3-b]pyrazine-6-carboxamide] are under 0.1 µM and 0.1 to 1 µM.
With `Cc1ccc(NC(=O)c2cc(F)cc(C(F)(F)F)c2)cc1NC(=O)c1cc2nccnc2s1` [Example 32, N-(5-(3-fluoro-5-(trifluoromethyl)benzamido)-2-methylphenyl)thieno[2,3-b]pyrazine-6-carboxamide], the values for the IC50 in test [1] and in test [2] (setting [4]) were under 0.1 µM and 1 to 10 µM, respectively.
The corresponding values for `Cc1ccc(NC(=O)c2cccc(OC(F)(F)F)c2)cc1NC(=O)c1cc2nccnc2s1` [Example 35, N-(2-methyl-5-(3-(trifluoromethoxy)benzamido)phenyl)thieno[2,3-b]pyrazine-6-carboxamide] are under 0.1 µM and 1 to 10 µM.
For the compound `Cc1ccc(NC(=O)c2cccc(C3(C#N)CCOCC3)c2)cc1NC(=O)c1cc2nccnc2s1` [Example 36, N-(5-(3-(4-cyanotetrahydro-2H-pyran-4-yl)benzamido)-2-methylphenyl)thieno[2,3-b]pyrazine-6-carboxamide], the half-inhibitory concentration (IC50) was under 0.1 µM in test [1] and 1 to 10 µM in test [2] (setting [4]).
